Holding throughout (experiment): Minimum Inhibitory Concentration (MIC), agar dilution, standard strains
One test relates to S. epidermidis R005. The test is classed as cell-based. The following applies: Mueller-Hinton agar, 37° C., 20 hours; for MIC: Staphylococcus epidermidis, R005, read-out: Minimum Inhibitory Concentration, S. epidermidis R005. How it is done: (§1) The effectiveness of the compound according to the present invention was determined by obtaining Minimum Inhibitory Concentration (MIC) of the compounds prepared by the above examples (Compounds I-1 to I-41) and vancomycin, which is the known compound having a potent activity against gram-positive strains, as the control drug against the standard strains. Specifically, Minimum Inhibitory Concentration was obtained by diluting the test compound according to a double dilution method, dispersing them in Mueller-Hinton agar medium, inoculating each of the test strain having 10^7 cfu (colony forming unit) per ml in an amount of 2 μl to the medium and then incubating them at 37° C. for 20 hours. From the result of Minimum Inhibitory Concentration test, it can be seen that the compound according to the present invention has a good activity against major pathogenic microorganisms, which cause hospital infection, including MRSA strains.

For test [1], the system named is Staphylococcus aureus giorgio. Format: cell-based. The following applies: Mueller-Hinton agar, 37° C., 20 hours; for MIC: Staphylococcus aureus, read-out: Minimum Inhibitory Concentration, Staphylococcus aureus giorgio. The procedure: as §1
A further test concerns E. faecalis EFS004. Format: cell-based. The following applies: Table 2, Mueller-Hinton agar, 37° C., 20 hours; for MIC: Enterococcus faecalis, EFS004, read-out: Minimum Inhibitory Concentration, E. faecalis EFS004. The procedure: as §1
The subject of the next test is S. aureus 77. The test is classed as cell-based, Staphylococcus aureus. The following applies: Mueller-Hinton agar, 37° C., 20 hours; for MIC: Staphylococcus aureus, 77, read-out: Minimum Inhibitory Concentration, S. aureus 77. The procedure: as §1
Another test relates to S. aureus K311. The test is classed as cell-based, Staphylococcus aureus. The conditions noted are these: Table 2, Mueller-Hinton agar, 37° C., 20 hours; for MIC: Staphylococcus aureus, K311, read-out: Minimum Inhibitory Concentration, S. aureus K311. The procedure: as §1
The test system of a further test is E. faecalis L239. Format: cell-based. The conditions noted are these: Table 1; Mueller-Hinton agar, 37° C., 20 hours. The procedure:
as §1

Another test concerns S. aureus 241. The test is classed as cell-based, Staphylococcus aureus. The following applies: Table 1; Mueller-Hinton agar, 37° C., 20 hours. The procedure:
as §1

Converted amounts (≈) assume the structure as drawn.

For the molecule `Nc1cc(SC/C=C/C2=C(C(=O)O)N3C(=O)[C@@H](NC(=O)CSc4cc(Cl)nc(Cl)c4)[C@H]3SC2)nc(N)n1` [Compound I-11, (6R,7R)-3-{(E)-3-[(2,6-diamino-4-pyrimidinyl)sulfanyl]-1-propenyl}-7-( {2-[(2,6-dichloro-4-pyridinyl)sulfanyl]acetyl}amino)-8-oxo-5-thia-1-azabicyclo[4.2.0]oct-2-ene-2-carboxylic acid], the MIC was 0.5 µg/mL (≈ 0.833 µM) with S. epidermidis R005 (Table 2); 0.016 µg/mL (≈ 0.0266 µM) in test [1] (Table 2); 2 µg/mL (≈ 3.33 µM) in the test on E. faecalis EFS004; 0.25 µg/mL (≈ 0.416 µM) in the test with S. aureus 77 (Table 2); 0.5 µg/mL (≈ 0.833 µM) in the test on S. aureus K311.
Consider `Nc1nc(SC/C=C/C2=C(C(=O)O)N3C(=O)[C@@H](NC(=O)CSc4cc(Cl)nc(Cl)c4)[C@H]3SC2)nc2[nH]ncc12` [Compound I-9, (6R,7R)-3-{(E)-3-[(4-amino-1H-pyrazolo[3,4-d]pyrimidin-6-yl)sulfanyl]-1-propenyl}-7-({2-[(2,6-dichloro-4-pyridinyl)sulfanyl]acetyl}amino)-8-oxo-5-thia-1-azabicyclo[4.2.0]oct-2-ene-2-carboxylic acid], for which the MIC with S. epidermidis R005 (Table 2) turned out to be 0.5 µg/mL (≈ 0.799 µM); in test [1] (Table 2), 0.031 µg/mL (≈ 0.0496 µM); in the test on E. faecalis EFS004, 1 µg/mL (≈ 1.6 µM); in the test with S. aureus 77 (Table 2) it was 0.25 µg/mL (≈ 0.4 µM); in the test with S. aureus K311, 1 µg/mL (≈ 1.6 µM).
For the molecule `O=C(CSc1cc(Cl)nc(Cl)c1)N[C@@H]1C(=O)N2C(C(=O)O)=C(/C=C/CSc3ncnc4[nH]ncc34)CS[C@H]12` [Compound I-7, (6R,7R)-7-({2-[(2,6-dichloro-4-pyridinyl)sulfanyl]acetyl}amino)-8-oxo-3-[(E)-3-(1H-pyrazolo[3,4-d]pyrimidin-4-ylsulfanyl]-1-propenyl]-5-thia-1-azabicyclo[4.2.0]oct-2-ene-2-carboxylic acid], the MIC was 0.25 µg/mL (≈ 0.409 µM) in the test on S. epidermidis R005 (Table 2); under 0.008 µg/mL in test [1] (Table 2); 0.5 µg/mL (≈ 0.819 µM) in the test on E. faecalis EFS004; 0.25 µg/mL (≈ 0.409 µM) with S. aureus 77 (Table 2); 0.5 µg/mL (≈ 0.819 µM) in the test with S. aureus K311.
As for `O=C(CSc1cc(Cl)nc(Cl)c1)N[C@@H]1C(=O)N2C(C(=O)O)=C(/C=C/CSc3nc(O)cc(NCCO)n3)CS[C@H]12` [Compound I-15, (6R,7R)-7-({2-[(2,6-dichloro-4-pyridinyl)sulfanyl]acetyl}amino)-3-[(E)-3-({4-hydroxy-6-[(2-hydroxyethyl)amino]-2-pyrimidinyl]sulfanyl}-1-propenyl]-8-oxo-5-thia-1-azabicyclo[4.2.0]oct-2-ene-2-carboxylic acid], the MIC in the test on S. epidermidis R005 (Table 2) was 0.5 µg/mL (≈ 0.775 µM); in test [1] (Table 2) it was 0.031 µg/mL (≈ 0.048 µM); in the test on E. faecalis EFS004, 1 µg/mL (≈ 1.55 µM); with S. aureus 77 (Table 2) it was 0.5 µg/mL (≈ 0.775 µM); in the test with S. aureus K311, 0.5 µg/mL (≈ 0.775 µM).
For `Nc1nc(O)cc(SC/C=C/C2=C(C(=O)O)N3C(=O)[C@@H](NC(=O)CSc4cc(Cl)nc(Cl)c4)[C@H]3SC2)n1` [Compound I-10, (6R,7R)-3-{(E)-3-[(2-amino-6-hydroxy-4-pyrimidinyl)sulfanyl]-1-propenyl}-7-({2-[(2,6-dichloro-4-pyridinyl)sulfanyl]acetyl}amino)-8-oxo-5-thia-1-azabicyclo [4.2.0]oct-2-ene-2-carboxylic acid], the MIC with S. epidermidis R005 (Table 2) came to 0.25 µg/mL (≈ 0.416 µM); in test [1] (Table 2) it was 0.016 µg/mL (≈ 0.0266 µM); in the test with E. faecalis EFS004, 1 µg/mL (≈ 1.66 µM); in the test on S. aureus 77 (Table 2), 0.25 µg/mL (≈ 0.416 µM); in the test with S. aureus K311, 0.5 µg/mL (≈ 0.831 µM).
`Nc1cc(N)nc(SC/C=C/C2=C(C(=O)O)N3C(=O)[C@@H](NC(=O)CSc4cc(Cl)nc(Cl)c4)[C@H]3SC2)n1` [Compound I-8, (6R,7R)-3-{(E)-3-[(4,6-diamino-2-pyrimidinyl)sulfanyl]-1-propenyl}-7-({2-[(2,6-dichloro-4-pyridinyl)sulfanyl]acetyl}amino)-8-oxo-5-thia-1-azabicyclo[4.2.0]oct-2-ene-2-carboxylic acid]: the MIC with S. epidermidis R005 (Table 2) was 0.5 µg/mL (≈ 0.833 µM); in test [1] (Table 2), 0.031 µg/mL (≈ 0.0516 µM); in the test on E. faecalis EFS004, 1 µg/mL (≈ 1.67 µM); with S. aureus 77 (Table 2) it was 0.25 µg/mL (≈ 0.416 µM); in the test on S. aureus K311 it was 0.5 µg/mL (≈ 0.833 µM).
With `CC[n+]1c(N)cc(N)nc1SC/C=C/C1=C(C(=O)O)N2C(=O)[C@@H](NC(=O)CSc3cc(Cl)nc(Cl)c3)[C@H]2SC1` [Compound I-16, 4,6-diamino-2-({(E)-3-[(6R,7R)-2-carboxy-7-({2-[(2,6-dichloro-4-pyridinyl)sulfanyl]acetyl}amino)-8-oxo-5-thia-1-azabicyclo[4.2.0]oct-2-en-3-yl]-2-propenyl}sulfanyl)-1-ethylpyrimidin-1-ium], in the test on S. epidermidis R005 (Table 2), the “Minimum Inhibitory Concentration, S. epidermidis R005” value was 0.13 µg/mL. For the same molecule, the “Minimum Inhibitory Concentration, Staphylococcus aureus giorgio” value in test [1] (Table 2) is under 0.008 µg/mL. The “Minimum Inhibitory Concentration, E. faecalis EFS004” value in the test with E. faecalis EFS004 stood at 0.5 µg/mL. In the test with S. aureus 77 (Table 2), the “Minimum Inhibitory Concentration, S. aureus 77” value amounted to 0.13 µg/mL. Besides, the “Minimum Inhibitory Concentration, S. aureus K311” value with S. aureus K311 was determined as 0.5 µg/mL.
On to `CCSc1nc(C)cc(SC/C=C/C2=C(C(=O)O)N3C(=O)[C@@H](NC(=O)CSc4cc(Cl)nc(Cl)c4)[C@H]3SC2)n1` [Compound I-12, (6R,7R)-7-({2-[(2,6-dichloro-4-pyridinyl)sulfanyl]acetyl}amino)-3-((E)-3-{[2-(ethylsulfanyl)-6-methyl-4-pyrimidinyl]sulfanyl}-1-propenyl)-8-oxo-5-thia-1-azabicyclo[4.2.0]oct-2-ene-2-carboxylic acid], for which the MIC in the test with S. epidermidis R005 (Table 2) came to 0.5 µg/mL (≈ 0.776 µM); in test [1] (Table 2), 0.031 µg/mL (≈ 0.0481 µM); in the test with E. faecalis EFS004 it was 0.5 µg/mL (≈ 0.776 µM); with S. aureus 77 (Table 2) it was 0.5 µg/mL (≈ 0.776 µM); in the test on S. aureus K311, 1 µg/mL (≈ 1.55 µM).
In the case of `Cn1c(N)n[n+]2c(SC/C=C/C3=C(C(=O)O)N4C(=O)[C@@H](NC(=O)CSc5cc(Cl)nc(Cl)c5)[C@H]4SC3)nc(N)cc12` [Compound I-14, 2,7-diamino-5-({(E)-3-[(6R,7R)-2-carboxy-7-({2-[(2,6-dichloro-4-pyridinyl)sulfanyl]acetyl}amino)-8-oxo-5-thia-1-azabicyclo[4.2.0]oct-2-en-3-yl]-2-propenyl}sulfanyl)-1-methyl-1H-[1,2,4]triazolo[1,5-c]pyrimidin-4-ium], in the test with S. epidermidis R005 (Table 2), the “Minimum Inhibitory Concentration, S. epidermidis R005” value turned out to be 0.13 µg/mL. Further, the “Minimum Inhibitory Concentration, Staphylococcus aureus giorgio” value in test [1] (Table 2) is under 0.008 µg/mL. In addition, in the test on E. faecalis EFS004, the “Minimum Inhibitory Concentration, E. faecalis EFS004” value amounted to 1 µg/mL. Moreover, the “Minimum Inhibitory Concentration, S. aureus 77” value in the test on S. aureus 77 (Table 2) was 0.13 µg/mL. The “Minimum Inhibitory Concentration, S. aureus K311” value in the test with S. aureus K311 was 0.25 µg/mL.
`Nc1cc(N)[n+](C/C=C/C2=C(C(=O)O)N3C(=O)[C@@H](NC(=O)CSc4cc(Cl)nc(Cl)c4)[C@H]3SC2)cn1` [Compound I-18]: the “Minimum Inhibitory Concentration, S. epidermidis R005” value in the test on S. epidermidis R005 (Table 2) turned out to be 0.25 µg/mL. Besides, the “Minimum Inhibitory Concentration, Staphylococcus aureus giorgio” value in test [1] (Table 2) came out at 0.016 µg/mL. Also, the “Minimum Inhibitory Concentration, E. faecalis EFS004” value with E. faecalis EFS004 came to 1 µg/mL. Further, the “Minimum Inhibitory Concentration, S. aureus 77” value in the test with S. aureus 77 (Table 2) amounted to 0.25 µg/mL. Also, the “Minimum Inhibitory Concentration, S. aureus K311” value with S. aureus K311 came out at 1 µg/mL.
Turning to `Nc1nc(SC/C=C/C2=C(C(=O)O)N3C(=O)[C@@H](NC(=O)CSc4cc(Cl)nc(Cl)c4)[C@H]3SC2)c2c([n+]1N)CCC2` [Compound I-17, 1,2-diamino-4-({(E)-3-[(6R,7R)-2-carboxy-7-({2-[(2,6-dichloro-4-pyridinyl)sulfanyl]acetyl}amino)-8-oxo-5-thia-1-azabicyclo[4.2.0]oct-2-en-3-yl]-2-propenyl}sulfanyl)-6,7-dihydro-5H-cyclopenta[d]pyrimidin-1-ium], the “Minimum Inhibitory Concentration, S. epidermidis R005” value in the test on S. epidermidis R005 (Table 2) was found to be 0.25 µg/mL. Further, in test [1] (Table 2), the “Minimum Inhibitory Concentration, Staphylococcus aureus giorgio” value was under 0.008 µg/mL. In the test on E. faecalis EFS004, the “Minimum Inhibitory Concentration, E. faecalis EFS004” value was determined as 0.5 µg/mL. Also, the “Minimum Inhibitory Concentration, S. aureus 77” value with S. aureus 77 (Table 2) was 0.25 µg/mL. In addition, the “Minimum Inhibitory Concentration, S. aureus K311” value in the test on S. aureus K311 was found to be 0.5 µg/mL.
For `Cc1c(N)nc[n+](C/C=C/C2=C(C(=O)O)N3C(=O)[C@@H](NC(=O)CSc4cc(Cl)ccc4Cl)[C@H]3SC2)c1N` [Compound I-31], the “Minimum Inhibitory Concentration, S. epidermidis R005” value with S. epidermidis R005 (Table 1) worked out at 0.25 µg/mL. Further, in test [1] (Table 1), the “Minimum Inhibitory Concentration, Staphylococcus aureus giorgio” value came out at 0.016 µg/mL. Besides, in the test on E. faecalis L239, the “Minimum Inhibitory Concentration, E. faecalis L239” value is 2 µg/mL. Also, in the test with S. aureus 241, the “Minimum Inhibitory Concentration, S. aureus 241” value amounted to 8 µg/mL. Moreover, the “Minimum Inhibitory Concentration, S. aureus 77” value in the test with S. aureus 77 (Table 1) stood at 1 µg/mL.

Values taken from US20030162762A1, “Novel cephalosporin compounds and process for preparing the same” (priority 2000, published 2003).
